The record followed here is ChEMBL document CHEMBL3046579, “Synthesis, anticancer and MRP1 inhibitory activities of 4-alkyl/aryl-3,5-bis(carboethoxy/carbomethoxy)-1,4-dihydro-2,6-dimethylpyridines” (Med Chem Res, 2013).

Data set [1] deals with T1, Multidrug resistance-associated protein 1 (Homo sapiens, UniProt P33527). Kind of data set: Inhibition of Homo sapiens (human) MRP1 expressed in Sf9 cell membranes assessed as decrease in N-ethyl-maleimide-glutathione-induced inorganic phosphate production at 1 to 1000 uM by spectrophotometric analysis in presence of glutathione.
In data set [2] the test system is HT-29. Kind of data set: Cytotoxicity against Homo sapiens (human) HT-29 cells assessed as cell viability after 48 hr by MTT assay. It counts as functional, cell-based. For orientation: Formazan colour is commonly taken as a measure of viable cells.
The nature of data set [3]: Cytotoxicity against Homo sapiens (human) MDA-MB cells assessed as cell viability after 48 hr by MTT assay. The class given is functional, cell-based.
The target in data set [4] is T2, MRP1 (Homo sapiens, UniProt P33527). Description: Inhibition of Homo sapiens (human) MRP1 expressed in Sf9 cell membranes assessed as decrease in N-ethyl-maleimide-glutathione-induced inorganic phosphate production at 10 uM by spectrophotometric analysis in presence of glutathione relative to control. The following applies: Sf9 cell membranes expressing human MRP1, probe N-ethyl-maleimide-glutathione.

Data set [5] addresses T1, Multidrug resistance-associated protein 1. Kind of data set: Inhibition of Homo sapiens (human) MRP1 expressed in Sf9 cell membranes assessed as decrease in N-ethyl-maleimide-glutathione-induced inorganic phosphate production by spectrophotometric analysis in presence of glutathione.
Data set [6] deals with T2, MRP1. Kind of data set: Inhibition of Homo sapiens (human) MRP1 expressed in Sf9 cell membranes assessed as decrease in N-ethyl-maleimide-glutathione-induced inorganic phosphate production at 50 uM by spectrophotometric analysis in presence of glutathione relative to control. Particulars: Sf9 cell membranes expressing human MRP1, probe N-ethyl-maleimide-glutathione, read-out: Imax; call rule not given here.

Data set [7] has as its system HSC-2. Kind of data set: Cytotoxicity against Homo sapiens (human) HSC2 cells. The class given is functional, cell-based.
Data set [8] can be described thus: Cytotoxicity against Homo sapiens (human) HSG cells. It counts as functional, cell-based.
Where [9] appears, read: Homo sapiens, MDA-MB, 48 h, read-out: IC50.
[10] abbreviates: Homo sapiens, HT-29, 48 h, read-out: IC50.

T1 sequence (P33527 whole entry): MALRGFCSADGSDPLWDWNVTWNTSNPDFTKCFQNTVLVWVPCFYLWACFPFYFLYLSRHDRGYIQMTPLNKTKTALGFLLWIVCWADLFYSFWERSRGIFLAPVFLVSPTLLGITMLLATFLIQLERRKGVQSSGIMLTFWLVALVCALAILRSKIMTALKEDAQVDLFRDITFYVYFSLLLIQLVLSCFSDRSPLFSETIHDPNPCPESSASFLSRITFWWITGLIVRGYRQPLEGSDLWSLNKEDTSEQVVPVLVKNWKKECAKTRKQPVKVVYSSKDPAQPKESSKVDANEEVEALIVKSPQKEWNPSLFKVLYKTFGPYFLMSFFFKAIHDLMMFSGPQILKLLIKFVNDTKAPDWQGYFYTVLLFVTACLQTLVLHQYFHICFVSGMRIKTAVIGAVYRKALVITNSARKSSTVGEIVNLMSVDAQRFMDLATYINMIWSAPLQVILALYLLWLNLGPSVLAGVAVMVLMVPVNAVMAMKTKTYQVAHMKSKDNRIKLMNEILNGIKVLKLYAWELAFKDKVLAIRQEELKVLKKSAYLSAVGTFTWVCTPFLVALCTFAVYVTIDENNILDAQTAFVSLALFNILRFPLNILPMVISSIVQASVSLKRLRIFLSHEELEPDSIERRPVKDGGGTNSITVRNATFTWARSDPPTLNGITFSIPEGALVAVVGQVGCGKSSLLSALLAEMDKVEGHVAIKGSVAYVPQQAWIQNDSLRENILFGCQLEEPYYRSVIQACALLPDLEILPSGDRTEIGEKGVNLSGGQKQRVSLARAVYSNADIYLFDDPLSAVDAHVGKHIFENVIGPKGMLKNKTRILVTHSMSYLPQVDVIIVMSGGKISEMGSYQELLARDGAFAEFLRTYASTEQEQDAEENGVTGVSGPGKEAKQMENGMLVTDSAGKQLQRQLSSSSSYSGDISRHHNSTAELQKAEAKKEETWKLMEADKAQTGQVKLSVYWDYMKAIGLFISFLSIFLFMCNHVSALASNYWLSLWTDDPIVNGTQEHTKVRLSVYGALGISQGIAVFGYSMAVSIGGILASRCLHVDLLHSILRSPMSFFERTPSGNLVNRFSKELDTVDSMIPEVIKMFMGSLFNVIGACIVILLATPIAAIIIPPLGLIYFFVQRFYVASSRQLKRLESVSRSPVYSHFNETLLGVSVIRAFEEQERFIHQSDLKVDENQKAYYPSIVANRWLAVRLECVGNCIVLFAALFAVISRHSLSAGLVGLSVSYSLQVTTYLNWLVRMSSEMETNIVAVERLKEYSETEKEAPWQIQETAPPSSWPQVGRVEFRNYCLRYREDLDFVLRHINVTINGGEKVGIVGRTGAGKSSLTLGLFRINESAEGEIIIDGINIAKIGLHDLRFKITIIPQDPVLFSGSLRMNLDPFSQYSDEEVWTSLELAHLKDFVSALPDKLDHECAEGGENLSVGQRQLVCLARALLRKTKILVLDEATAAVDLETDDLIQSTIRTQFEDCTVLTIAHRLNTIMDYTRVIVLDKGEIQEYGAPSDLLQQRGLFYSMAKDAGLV
T2 sequence (P33527 whole entry): as above

Broadly, the IC50 is the concentration that inhibits the measured activity by half. Take `CCCC1C(C(=O)OCC)=C(C)NC(C)=C1C(=O)OCC`: the “inhibition (INH)” value in data set [1] is given as “Not Active”. Moreover, the results for the IC50 entry in data set [2] (ht-29) and in data set [3] (setting [9]) were “Not Active” and 500 µM, respectively.

Consider `CCOC(=O)C1=C(C)NC(C)=C(C(=O)OCC)C1c1ccccc1`, for which the IC50 entry in data set [2] (ht-29) and in data set [3] (mda-mb) was “Not Active” each time.

In the case of `CCOC(=O)C1=C(C)NC(C)=C(C(=O)OCC)C1c1cccc([N+](=O)[O-])c1`, the “inhibition (INH)” value in data set [1] is “Not Active”. Also, the figures for the 50% inhibitory concentration (IC50) in data set [2] (setting [10]) and in data set [3] (setting [9]) were 500 µM and 244 µM, respectively.

Turning to `CCOC(=O)C1=C(C)NC(C)=C(C(=O)OCC)C1c1ccc(Cl)cc1`, the inhibition at 10 µM in data set [4] is 47%. Besides, the figures for the IC50 in data set [5], in data set [2] (setting [10]) and in data set [3] (setting [9]) were 16 µM, 262 µM and 268 µM, respectively. In data set [6], the inhibition at 50 µM is 65%.

For `CCOC(=O)C1=C(C)NC(C)=C(C(=O)OCC)C1c1ccc(C)cc1`, the IC50 was 310 µM in data set [2] (setting [10]) and 500 µM in data set [3] (setting [9]).

With `COC(=O)C1=C(C)NC(C)=C(C(=O)OC)C1c1ccc(Cl)cc1`, in data set [1], the “inhibition (INH)” value is “Not Active”. For the same compound, the IC50 entry was “Not Active” in data set [2] (ht-29) and 460 µM in data set [3] (setting [9]).

Take `COC(=O)C1=C(C)NC(C)=C(C(=O)OC)C1c1ccc(OC)cc1`: the IC50 in data set [2] (setting [10]) is 452 µM; in data set [3] (mda-mb) it was “Not Active”.

Regarding `CCOC(=O)C1=C(C)NC(C)=C(C(=O)OCC)C1c1ccc(OC)cc1`, in data set [1], the “inhibition (INH)” value is reported as “Not Active”. The results for the concentration for half-maximal inhibition (IC50) entry in data set [2] (ht-29) and in data set [3] (setting [9]) were “Not Active” and 331 µM, respectively.

In the case of `COC(=O)C1=C(C)NC(C)=C(C(=O)OC)C1c1ccccc1`, the IC50 entry in data set [2] (ht-29) and in data set [3] (mda-mb) was “Not Active” throughout.

In the case of `CCCCC1C(C(=O)OCC)=C(C)NC(C)=C1C(=O)OCC`, in data set [1], the “inhibition (INH)” value is “Not Active”. Besides, the IC50 entry in data set [2] (ht-29) is “Not Active”; in data set [3] (setting [9]), 350 µM.

`CCCC1C(C(=O)OC)=C(C)NC(C)=C1C(=O)OC`: the IC50 result in data set [2] (ht-29) and in data set [3] (mda-mb) was “Not Active” throughout.

As to `CCCCC1C(C(=O)OC)=C(C)NC(C)=C1C(=O)OC`, the IC50 in data set [2] (setting [10]) is 500 µM; in data set [3] (mda-mb), “Not Active”.

`COC(=O)C1=C(C)NC(C)=C(C(=O)OC)C1c1ccc(C)cc1`: the “inhibition (INH)” value in data set [1] is “Not Active”. Further, the half-maximal inhibitory concentration (IC50) result is “Not Active” in data set [2] (ht-29) and 500 µM in data set [3] (setting [9]).

As to `CC1=C(C(=O)c2ccccc2)C(c2ccccc2C(F)(F)F)C(C(=O)c2ccccc2)=C(C)N1`, the half-inhibitory concentration (IC50) in data set [7] and in data set [8] was 8.7 µM each time.

With `CC1=C(C(=O)c2ccccc2)C(c2ccccc2Cl)C(C(=O)c2ccccc2)=C(C)N1`, the values for the IC50 in data set [7] and in data set [8] were 7 µM and 28 µM, respectively.
